Consider 17 compounds from patent US20240398805A1, “QUINAZOLINE DERIVED COMPOUNDS AS EGFR INHIBITORS AND THEIR USES THEREOF” (ACCUTAR BIOTECHNOLOGY INC., priority 2021, published 2024).

Holding throughout (assay type): cell-based
In assay [1] the test system is HCC827-ASV cells (human EGFR exon 20 insertion mutant A769_D770insASV). Briefly: Cell growth inhibition (CellTiter-Glo, 3 days) in HCC827-ASV. The settings on record: 72 h, 3 days after administration. The procedure, abridged: (§1)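 HCC827 cells lentivirally transduced with codon-optimized ASV or YVMA insertion mutants were seeded at 5000 cells/well in RPMI with 10% FBS and incubated overnight. Compound was added at various concentrations from a 10× stock in medium, with 3 days' incubation. Viability read by CellTiter-Glo luminescence.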
On the technique in general: Cellular ATP, detected with luciferase, serves as a proxy for viable cell number.

The subject of assay [2] is HCC827-YVMA cells (human ERBB2 exon20 insertion mutant A775_G776ins YVMA). Briefly: Cell growth inhibition (CellTiter-Glo, 3 days) in HCC827-YVMA. As to conditions: 72 h, 3 days after administration. The procedure, abridged: as §1
Assay [3] concerns HCC827-SVD cells (human EGFR exon 20 insertion mutant D770_N771 insSVD). Briefly: Cell growth inhibition (CellTiter-Glo, 3 days) in HCC827-SVD. The settings on record: 72 h, 3 days after administration. A digest of the protocol: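 HCC827 cells carrying lentiviral codon-optimized EGFR D770_N771 insSVD, with endogenous EGFR knocked out by CRISPR (single clone), seeded at 5000 cells/well in RPMI with 10% FBS. Viability read by CellTiter-Glo luminescence.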

The test system of the next assay is HCC827 cells. Briefly: Cell growth inhibition (CellTiter-Glo, 3 days) in HCC827. As to conditions: Homo sapiens, 72 h, 3 days after administration. A digest of the protocol:
(§2)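 HCC827 cells were plated at 5000 cells/well in RPMI with 10% FBS, and A431 cells at the same density in DMEM with 10% FBS. After overnight attachment, compounds were added at various concentrations. Luminescence was recorded after plates were equilibrated to room temperature and incubated 10 min with reagent.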

The subject of a further assay is A431 cells. In words: Cell growth inhibition (CellTiter-Glo, 3 days) in A431. As to conditions: Homo sapiens, A-431, 72 h, 3 days after administration. The procedure, abridged: as §2

Molecules are shown by their SMILES. Where only a bound is given, the exact number is not on record here.

Regarding `C=CC(=O)N1CCC(Nc2cc3c(Nc4ccc(Oc5ccn(-c6cnc7ccccc7c6)n5)cc4F)ncnc3cc2OC)CC1` [Example 91, 1-(4-((4-((2-fluoro-4-((1-(quinolin-3-yl)-1H-pyrazol-3-yl)oxy)phenyl)amino)-7-methoxyquinazolin-6-yl)amino)piperidin-1-yl)prop-2-en-1-one], the GI50 (commonly the concentration at which growth is held to half of that of the control) in assay [1] is 60 to 100 nM; in assay [2] it was 100 to 300 nM; in assay [3], 30 to 60 nM; with HCC827 cells, 100 to 300 nM; in the assay with A431 cells, 100 to 300 nM.

For the compound `C=CC(=O)N1CCC(Nc2cc3c(Nc4ccc(Oc5ccnc(N6CCOC[C@@H]6CO)c5)cc4F)ncnc3cc2OC)CC1` [Example 127, (S)-1-(4-((4-((2-fluoro-4-((2-(3-(hydroxymethyl)morpholino)pyridin-4-yl)oxy)phenyl)amino)-7-methoxyquinazolin-6-yl)amino)piperidin-1-yl)prop-2-en-1-one], the GI50 in assay [1] was 100 to 300 nM; in assay [2], 100 to 300 nM; in assay [3], 100 to 300 nM; with HCC827 cells, 600 to 1000 nM; with A431 cells it was at least 1000 nM.

With `C=CC(=O)N1CCC(Nc2cc3c(Nc4ccc(Oc5ccnc(N6C[C@@H](F)[C@@H](OC)C6)c5)cc4F)ncnc3cc2OC)CC1` [Example 263, 1-(4-((4-((2-fluoro-4-((2-((3R,4S)-3-fluoro-4-methoxypyrrolidin-1-yl)pyridin-4-yl)oxy)phenyl)amino)-7-methoxyquinazolin-6-yl)amino)piperidin-1-yl)prop-2-en-1-one], the GI50 in assay [1] was under 30 nM; in assay [2] it was under 30 nM; in assay [3], under 30 nM; with HCC827 cells, 100 to 300 nM; with A431 cells, 600 to 1000 nM.

As for `C=CC(=O)N1CCC(Nc2cc3c(Nc4ccc(Oc5ccnc(C(=O)O)c5)cc4F)ncnc3cc2OC)CC1` [Example 212, 4-(4-((6-((1-acryloylpiperidin-4-yl)amino)-7-methoxyquinazolin-4-yl)amino)-3-fluorophenoxy) picolinic acid], the GI50 (in assay [1]; in assay [2]; in assay [3]; in the assay with HCC827 cells; in the assay on A431 cells) was at least 1000 nM each time.

For the compound `C=CC(=O)N1CCC(Nc2cc3c(Nc4ccc(Oc5ccnc(N6CCCN(C)CC6)c5)cc4F)ncnc3cc2OC)CC1` [Example 242, 1-(4-((4-((2-fluoro-4-((2-(4-methyl-1,4-diazepan-1-yl)pyridin-4-yl)oxy)phenyl)amino)-7-methoxyquinazolin-6-yl)amino)piperidin-1-yl)prop-2-en-1-one], the GI50 is 100 to 300 nM in assay [1]; 100 to 300 nM in assay [2]; 100 to 300 nM in assay [3]; at least 1000 nM in the assay on HCC827 cells; at least 1000 nM in the assay with A431 cells.

Turning to `C=CC(=O)N1CCC(Nc2cc3c(Nc4ccc(Oc5ccnc(N6CC[C@@H](C)C6)c5)cc4F)ncnc3cc2OC)CC1` [Example 197, (R)-1-(4-((4-((2-fluoro-4-((2-(3-methylpyrrolidin-1-yl)pyridin-4-yl)oxy)phenyl)amino)-7-methoxyquinazolin-6-yl)amino)piperidin-1-yl)prop-2-en-1-one], the GI50 was under 30 nM in assay [1]; under 30 nM in assay [2]; under 30 nM in assay [3]; 60 to 100 nM in the assay on HCC827 cells; 300 to 600 nM with A431 cells.

In the case of `C=CC(=O)N1CCC(Nc2cc3c(Nc4ccc(Oc5ccnc(N6CC(C(C)(C)O)C6)c5)cc4F)ncnc3cc2OC)CC1` [Example 146, 1-(4-((4-((2-fluoro-4-((2-(3-(2-hydroxypropan-2-yl)azetidin-1-yl)pyridin-4-yl)oxy)phenyl)amino)-7-methoxyquinazolin-6-yl)amino)piperidin-1-yl)prop-2-en-1-one], the GI50 in assay [1] is 60 to 100 nM; in assay [2] it was 100 to 300 nM; in assay [3] it was 60 to 100 nM; with HCC827 cells, 600 to 1000 nM; in the assay on A431 cells it was at least 1000 nM.

As to `C=CC(=O)N1CCC(Nc2cc3c(Nc4ccc(Oc5ccnc(N6CCCC6)c5)cc4F)ncnc3cc2OC)CC1` [Example 102, 1-(4-((4-((2-fluoro-4-((2-(pyrrolidin-1-yl)pyridin-4-yl)oxy)phenyl)amino)-7-methoxyquinazolin-6-yl)amino)piperidin-1-yl)prop-2-en-1-one], the GI50 in assay [1] lay in the range of 100 to 300 nM; in assay [2], 100 to 300 nM; in assay [3], 60 to 100 nM; in the assay on HCC827 cells, 100 to 300 nM; in the assay with A431 cells it was 100 to 300 nM.

`C=CC(=O)N1CCC(Nc2cc3c(Nc4ccc(Oc5ccnc(N6CC(CO)C6)c5)cc4F)ncnc3cc2OC)CC1` [Example 140, 1-(4-((4-((2-fluoro-4-((2-(3-(hydroxymethyl)azetidin-1-yl)pyridin-4-yl)oxy)phenyl)amino)-7-methoxyquinazolin-6-yl)amino)piperidin-1-yl)prop-2-en-1-one]: the GI50 is 100 to 300 nM in assay [1]; 300 to 600 nM in assay [2]; 100 to 300 nM in assay [3]; 600 to 1000 nM in the assay with HCC827 cells; 600 to 1000 nM in the assay with A431 cells.

Take `C=CC(=O)N1CCC(Nc2cc3c(Nc4ccc(Oc5ccnc(N6CC[C@H](F)C6)c5)cc4F)ncnc3cc2OC)CC1` [Example 196, (S)-1-(4-((4-((2-fluoro-4-((2-(3-fluoropyrrolidin-1-yl)pyridin-4-yl)oxy)phenyl)amino)-7-methoxyquinazolin-6-yl)amino)piperidin-1-yl)prop-2-en-1-one]: the GI50 was under 30 nM in assay [1]; under 30 nM in assay [2]; under 30 nM in assay [3]; 60 to 100 nM with HCC827 cells; 100 to 300 nM with A431 cells.

In the case of `C=CC(=O)N1CCC(Nc2cc3c(Nc4ccc(Oc5ccnc(N6C[C@H](OC)[C@H](OC)C6)n5)cc4F)ncnc3cc2OC)CC1` [Compound 260, 1-(4-((4-((4-((2-((3R,4S)-3,4-dimethoxypyrrolidin-1-yl)pyrimidin-4-yl)oxy)-2-fluorophenyl)amino)-7-methoxyquinazolin-6-yl)amino)piperidin-1-yl)prop-2-en-1-one], the GI50 in assay [1] is under 30 nM; in assay [2], under 30 nM; in assay [3], under 30 nM; in the assay on HCC827 cells it was 100 to 300 nM; with A431 cells it was at least 1000 nM.

As for `C=CC(=O)N1CCC(Oc2cc3c(Nc4ccc(Oc5ccnc(N6CC7C(C6)C7(F)F)c5)cc4F)ncnc3cc2OC)CC1` (stereo not shown) [Example 188, 1-(4-((4-((4-((2-(6,6-difluoro-3-azabicyclo[3.1.0]hexan-3-yl)pyridin-4-yl)oxy)-2-fluorophenyl)amino)-7-methoxyquinazolin-6-yl)oxy)piperidin-1-yl)prop-2-en-1-one], the GI50 in assay [1] was under 30 nM; in assay [2], 30 to 60 nM; in assay [3] it was under 30 nM; in the assay with HCC827 cells it was 60 to 100 nM; in the assay on A431 cells, 100 to 300 nM.

Regarding `C=CC(=O)N1CCC(Nc2cc3c(Nc4ccc(Oc5ccnc(N[C@@H]6CCOC6)c5)cc4F)ncnc3cc2OC)CC1` [Example 248, (R)-1-(4-((4-((2-fluoro-4-((2-((tetrahydrofuran-3-yl)amino)pyridin-4-yl)oxy)phenyl)amino)-7-methoxyquinazolin-6-yl)amino)piperidin-1-yl)prop-2-en-1-one], the GI50 in assay [1] lay in the range of 30 to 60 nM; in assay [2], 30 to 60 nM; in assay [3] it was 30 to 60 nM; in the assay with HCC827 cells, 60 to 100 nM; in the assay on A431 cells it was 300 to 600 nM.

As to `C=CC(=O)N1CCC(Nc2cc3c(Nc4ccc(Oc5ccnc(N6CCOC[C@H]6C)c5)cc4F)ncnc3cc2OC)CC1` [Example 137, (R)-1-(4-((4-((2-fluoro-4-((2-(3-methylmorpholino)pyridin-4-yl)oxy)phenyl)amino)-7-methoxyquinazolin-6-yl)amino)piperidin-1-yl)prop-2-en-1-one], the GI50 is 100 to 300 nM in assay [1]; 300 to 600 nM in assay [2]; 100 to 300 nM in assay [3]; at least 1000 nM in the assay with HCC827 cells; at least 1000 nM in the assay with A431 cells.

With `C=CC(=O)N1CCC(Nc2cc3c(Nc4ccc(Oc5ccnc(N6CC[C@H](CO)C6)c5)cc4F)ncnc3cc2OC)CC1` [Example 250, (S)-1-(4-((4-((2-fluoro-4-((2-(3-(hydroxymethyl)pyrrolidin-1-yl)pyridin-4-yl)oxy)phenyl)amino)-7-methoxyquinazolin-6-yl)amino)piperidin-1-yl)prop-2-en-1-one], the GI50 is under 30 nM in assay [1]; under 30 nM in assay [2]; under 30 nM in assay [3]; 100 to 300 nM in the assay with HCC827 cells; at least 1000 nM with A431 cells.

As to `C=CC(=O)N1CCC(Nc2cc3c(Nc4ccc(Oc5ncc(-c6ccc(C)nc6)s5)cc4F)ncnc3cc2OC)CC1` [Compound 5, 1-(4-((4-((2-fluoro-4-((5-(6-methylpyridin-3-yl)thiazol-2-yl)oxy)phenyl)amino)-7-methoxyquinazolin-6-yl)amino)piperidin-1-yl)prop-2-en-1-one], the GI50 in assay [1] fell in the range of 100 to 300 nM; in assay [2] it was 100 to 300 nM; in assay [3], 100 to 300 nM; in the assay with HCC827 cells, 100 to 300 nM; in the assay on A431 cells, 300 to 600 nM.

`C=CC(=O)N1CCC(Nc2cc3c(Nc4ccc(Oc5ccnc(C(=O)N(C)C)c5)cc4F)ncnc3cc2OC)CC1` [Example 182, 4-(4-((6-((1-acryloylpiperidin-4-yl)amino)-7-methoxyquinazolin-4-yl)amino)-3-fluorophenoxy)-N,N-dimethylpicolinamide]: the GI50 in assay [1] is 600 to 1000 nM; in assay [2], 300 to 600 nM; in assay [3], 600 to 1000 nM; with HCC827 cells, 600 to 1000 nM; with A431 cells, at least 1000 nM.
